Literature values in patent US8377976B2, “N-hydroxyamidinoheterocycles as modulators of indoleamine 2,3-dioxygenase” (Incyte Corporation, priority 2006, dated 2013).

Experiments:
[1] = test system: tumor growth; settings: mice
[2] = test system: P815 tumor; settings: pre-immunized immune-competent mice
[3] = test system: allogeneic concepti; settings: pregnant mice exposed to 1MT
[4] = test system: peripheral blood lymphocytes (PBLs); settings: HeLa cells co-cultured with PBLs
[5] = test system: CD123-positive dendritic cells; settings: mature and immature CD123-positive dendritic cells
[6] = test system: LLC tumors; settings: C57B1/6 mice, versus placebo

Compound: Cn1cc(C[C@H](N)C(=O)O)c2ccccc21 [Example 1-MT, 1-methyl-tryptophan]
- tumor growth in combination with chemotherapeutic agents [1]: synergize with chemotherapeutic agents to reduce tumor growth
- growth of tumors [2]: inhibited
- rejection of concepti [3]: rapid, T cell-induced rejection of all allogeneic concepti
- reduction in PBL proliferation upon treatment with interleukin-2 (IL2) [4]: reversed
- IDO suppressive activity on T-cell activity [5]: blocked
- formation of tumors [6]: markedly delayed
